From paper PMC4012454 (Marine Drugs, 2014)

What was measured:
[1] = system: sheep; details: in vivo; cited from earlier work
[2] = molecular target: brevenal receptor; type: binding
[3] = molecular target: brevetoxin receptor (site five of voltage gated sodium channels); type: binding

Row | SMILES | bronchoconstriction (effect on RL) [1] | Ki [2] [nM] | Ki [3] [nM] | increase in RL (pulmonary resistance) [1]
1 | C=C/C=C\CC[C@H]1O[C@H]2CC[C@@]3(C)O[C@H]4[C@@H](O)C[C@@]5(C)O[C@@H](CC/C=C(C)/C(C)=C/C=O)[C@@H](C)C[C@H]5O[C@@H]4C[C@@H]3O[C@@H]2CC[C@@]1(C)O [Compound 3, brevenal] | no effects observed | 137 ± 16 | 1130 ± 153 | 
2 | C=C(C=O)C[C@@H]1C[C@H](O)[C@]2(C)O[C@@H]3C[C@@H]4O[C@@H]5C[C@]6(C)O[C@]7(C)CC[C@@H]8O[C@@H]9C[C@]%10(C)O[C@@H]%11C(C)=CC(=O)O[C@H]%11C[C@H]%10O[C@H]9C[C@@H](C)[C@H]8O[C@H]7C[C@H]6O[C@H]5C/C=C\[C@H]4O[C@H]3C[C@H]2O1 [brevetoxin, PbTx-2] |  |  |  | 221% ± 21%
